Test results from ChEMBL document CHEMBL5321222, “N(14)-substituted evodiamine derivatives as dual topoisomerase 1/tubulin-Inhibiting anti-gastrointestinal tumor agents” (Eur J Med Chem, 2023).
pIC50: −log10 of the molar value. Active and inactive are the calls of the source. The calls are words filed in the database; no cut-off is given here.

How the values were obtained:
MGC-803 [1] = assay: Inhibition of cell […] in human MGC-803 cells at 5 nM incubated for 24 hrs by scratch wound healing assay; assay type: functional, cell-based
MGC-803 [2] = assay: Inhibition of cell […] in human MGC-803 cells incubated for 24 hrs by scratch wound healing assay; assay type: functional, cell-based; details: dose 12.5-50 nM
SW480 = assay: Antiproliferative activity against human SW480 cells assessed as reduction in cell viability incubated for 72 hrs by MTT assay; assay type: functional, cell-based; details: SW480, 72 h
LoVo = assay: Antiproliferative activity against human LoVo cells assessed as reduction in cell viability incubated for 72 hrs by MTT assay; assay type: functional, cell-based
RKO [3] = assay: Antiproliferative activity against human RKO cells assessed as reduction in cell viability incubated for 72 hrs by MTT assay; assay type: functional, cell-based
HGC-27 = assay: Antiproliferative activity against human HGC-27 cells assessed as reduction in cell viability incubated for 72 hrs by MTT assay; assay type: functional, cell-based; details: HGC-27, 72 h
SGC-7901 = assay: Antiproliferative activity against human SGC-7901 cells assessed as reduction in cell viability incubated for 72 hrs by MTT assay; assay type: functional, cell-based; details: SGC-7901, 72 h
GES1 = assay: Antiproliferative activity against human GES1 cells assessed as reduction in cell viability incubated for 72 hrs by MTT assay; assay type: functional, cell-based; details: GES1, 72 h
MGC-803 [4] = assay: Antiproliferative activity against human MGC-803 cells assessed as reduction in cell viability incubated for 24 hrs by BrdU staining based fluorescence microscopic analysis; assay type: functional; details: dose 10-90 nM
RKO [5] = assay: Antiproliferative activity against human RKO cells assessed as reduction in cell viability incubated for 24 hrs by BrdU staining based fluorescence microscopic analysis; assay type: functional; details: dose 10-90 nM
MGC-803 [6] = assay: Inhibition of colony formation in human MGC-803 cells at 90 nM incubated for 7 days by crystal violet staining based assay; assay type: functional, cell-based; details: time 7.0 day
MGC-803 [7] = assay: Induction of apoptosis in human MGC-803 cells assessed as late apoptotic cells at 0.2 uM incubated for 24 hrs by propidium iodide and Annexin V/FITC staining based flow cytometry assay (reference value: 4.10%); assay type: functional
MGC-803 [8] = assay: Induction of cell cycle arrest in human MGC-803 cells assessed as accumulation of cells at G2/M phase at 0.05 uM incubated for 24 hrs by propidium iodide staining based flow cytometry analysis; assay type: functional
MGC-803 [9] = assay: Induction of apoptosis in human MGC-803 cells assessed as early apoptotic cells at 0.2 uM incubated for 24 hrs by propidium iodide and Annexin V/FITC staining based flow cytometry assay (reference value: 1.85%); assay type: functional
MGC-803 [10] = assay: Induction of apoptosis in human MGC-803 cells assessed as early apoptotic cells at 0.05 uM incubated for 24 hrs by propidium iodide and Annexin V/FITC staining based flow cytometry assay (reference value: 1.85%); assay type: functional
MGC-803 [11] = assay: Induction of apoptosis in human MGC-803 cells assessed as early apoptotic cells at 0.1 uM incubated for 24 hrs by propidium iodide and Annexin V/FITC staining based flow cytometry assay (reference value: 1.85%); assay type: functional
MGC-803 [12] = assay: Induction of apoptosis in human MGC-803 cells assessed as late apoptotic cells at 0.1 uM incubated for 24 hrs by propidium iodide and Annexin V/FITC staining based flow cytometry assay (reference value: 4.10%); assay type: functional
RKO [13] = assay: Induction of apoptosis in human RKO cells assessed as late apoptotic cells at 0.2 uM incubated for 24 hrs by propidium iodide and Annexin V/FITC staining based flow cytometry assay (reference value: 0.50%); assay type: functional
RKO [14] = assay: Induction of apoptosis in human RKO cells assessed as early apoptotic cells at 0.05 uM incubated for 24 hrs by propidium iodide and Annexin V/FITC staining based flow cytometry assay (reference value: 0.16%); assay type: functional
RKO [15] = assay: Induction of apoptosis in human RKO cells assessed as late apoptotic cells at 0.1 uM incubated for 24 hrs by propidium iodide and Annexin V/FITC staining based flow cytometry assay (reference value: 0.50%); assay type: functional
MGC-803 [16] = assay: Induction of morphological changes in human MGC-803 cells assessed as cell shrinkage at 0.05 to 0.2 uM incubated for 24 hrs by Giemsa staining based micrscopic analysis; assay type: functional; details: dose 0.05-0.2 µM
MGC-803 [17] = assay: Induction of morphological changes in human MGC-803 cells assessed as cell deformation at 0.05 to 0.2 uM incubated for 24 hrs by Giemsa staining based micrscopic analysis; assay type: functional; details: dose 0.05-0.2 µM
RKO [18] = assay: Induction of morphological changes in human RKO cells assessed as cell shrinkage at 0.05 to 0.2 uM incubated for 24 hrs by Giemsa staining based micrscopic analysis; assay type: functional; details: dose 0.05-0.2 µM
RKO [19] = assay: Induction of morphological changes in human RKO cells assessed as formation of apoptotic bodies at 0.05 to 0.2 uM incubated for 24 hrs by Giemsa staining based micrscopic analysis; assay type: functional, cell-based; details: dose 0.05-0.2 µM
[20] = target: T1, DNA topoisomerase 1 (Homo sapiens) (UniProt P11387); assay: Inhibition of topoisomerase 1 (unknown origin) at 200 uM using PBR322 DNA as substrate incubated for 30 mins by agarose gel electrophoresis
T1 sequence (whole entry): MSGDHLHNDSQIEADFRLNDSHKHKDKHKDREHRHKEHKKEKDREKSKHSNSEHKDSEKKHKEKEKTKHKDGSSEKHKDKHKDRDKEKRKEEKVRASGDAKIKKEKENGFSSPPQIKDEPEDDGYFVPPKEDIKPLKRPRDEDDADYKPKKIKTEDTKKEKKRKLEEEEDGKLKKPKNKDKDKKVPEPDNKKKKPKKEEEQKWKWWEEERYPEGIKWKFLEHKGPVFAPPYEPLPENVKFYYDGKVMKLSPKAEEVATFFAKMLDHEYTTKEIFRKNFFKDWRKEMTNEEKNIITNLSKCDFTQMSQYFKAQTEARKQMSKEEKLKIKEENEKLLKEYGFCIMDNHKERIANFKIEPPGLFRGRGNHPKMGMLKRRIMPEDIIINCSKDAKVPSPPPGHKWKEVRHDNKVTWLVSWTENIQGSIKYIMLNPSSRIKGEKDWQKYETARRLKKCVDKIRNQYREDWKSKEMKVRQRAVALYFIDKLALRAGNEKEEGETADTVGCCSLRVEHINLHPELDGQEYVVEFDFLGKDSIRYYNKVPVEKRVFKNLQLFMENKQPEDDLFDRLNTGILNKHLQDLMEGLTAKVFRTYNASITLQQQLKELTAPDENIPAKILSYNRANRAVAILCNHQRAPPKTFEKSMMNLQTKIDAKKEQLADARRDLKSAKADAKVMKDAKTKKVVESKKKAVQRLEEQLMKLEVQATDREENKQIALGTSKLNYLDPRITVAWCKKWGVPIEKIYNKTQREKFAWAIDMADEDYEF

Tubulin (Homo sapiens) [21] = target: T2, Tubulin (Homo sapiens) (UniProt P68371+Q9H4B7+P0DPH7+P68366+Q13509+Q71U36+P04350+Q3ZCM7+P07437+P68363+Q9BQE3+Q6PEY2+Q13885+Q9BVA1+Q9BUF5); assay: Induction of microtubule disruption in human MGC-803 cells assessed as atrophied nucleus at 50 to 200 nM incubated for 24 hrs by laser confocal microscopic analysis; assay type: cell-based; details: dose 50-200 nM
Tubulin (Homo sapiens) [22] = target: T2, Tubulin (Homo sapiens); assay: (§1) Inhibition of tubulin polymerization (unknown origin) measured every minute; assay type: protein-complex assay
Tubulin = assay: as §1; assay type: protein-complex assay, Homo sapiens

## CCCN1c2ccccc2C(=O)N2CCc3c([nH]c4ccccc34)C21 (stereo not drawn)
MGC-803 [1]
  inhibition: Active
MGC-803 [2]
  inhibition: Dose-Dependent Effect
SW480
  pIC50: 6.15
LoVo
  pIC50: 6.64
RKO [3]
  pIC50: 6.70
HGC-27
  pIC50: 6.09
SGC-7901
  pIC50: 7.05
GES1
  pIC50: 6.89
MGC-803 [4]
  Activity: Dose-Dependent Effect
RKO [5]
  Activity: Dose-Dependent Effect
MGC-803 [6]
  inhibition: Active
MGC-803 [7]
  Activity: 25.1%
MGC-803 [8]
  Activity: 40.55%
MGC-803 [9]
  Activity: 12.28%
MGC-803 [10]
  Activity: 3.03%
MGC-803 [11]
  Activity: 6.76%
MGC-803 [12]
  Activity: 24.63%
RKO [13]
  Activity: 37.67%
RKO [14]
  Activity: 9.67%
RKO [15]
  Activity: 33.41%
MGC-803 [16]
  Activity: Active
MGC-803 [17]
  Activity: Active
RKO [18]
  Activity: Active
RKO [19]
  Activity: Active
[20]
  inhibition: Active
Tubulin (Homo sapiens) [21]
  Activity: Active
Tubulin (Homo sapiens) [22]
  inhibition: Dose-Dependent Effect
Tubulin
  pIC50: 5.24
